# Test results published in patent US12678421B2, “Composition for enhancing NAMPT gene expression” (DAICEL CORPORATION, priority 2020, dated 2026).
# Assays:
# [1] = system: NAMPT gene; experiment: NAMPT gene expression in Caco-2 cells (real-time PCR); format: cell-based, human; settings: 10 μM, 24 hours after addition, relative to β-actin, vs DMSO control (FIG. 1)
# Procedure: (§1) Human colon cancer-derived cell line Caco-2 cells (colon, epithelial-like, colorectal adenocarcinoma, human, ATCC HTB-37) were passaged using DMEM (containing 10% FBS, antibiotics (penicillin and streptomycin), and NaHCO3) medium in a CO2 incubator under conditions of 37° C., 5% CO2, and 95% air, and used for testing.
# (§2) Caco-2 cells were seeded in a 12-well plate at a cell concentration of 3×10^5 cells/dish, and equol dissolved in DMSO was added at a final concentration of 10 μM after 24 hours and 48 hours. In addition, the same amount of DMSO was added to a control, and resveratrol (Wako Pure Chemical Industries, Ltd.) was added to a positive control at a final concentration of 10 μM.
# (§3) Cells were harvested 24 hours after the addition of equol, and total RNA was extracted. cDNA was synthesized using the total RNA and was used as a template for real-time PCR. Real-time PCR was performed using a primer of each gene and the prepared cDNA to measure the expression level of each gene. In addition, the relative gene expression level was calculated using β-actin, which is a housekeeping gene, by dividing the measured value by the expression level of β-actin. The orientation of the primer sequences is 5′ to 3′ from left to right.
# [2] = system: SIRT1 gene; experiment: SIRT1 gene expression in Caco-2 cells (real-time PCR); format: cell-based, human; settings: 10 μM, 24 hours after addition, relative to β-actin, vs DMSO control (FIG. 2)
# Procedure: as §1, §2, §3
# [3] = system: PGC-1α gene; experiment: PGC-1α gene expression in Caco-2 cells (real-time PCR); format: cell-based, human; settings: 10 μM, 24 hours after addition, relative to β-actin, vs DMSO control (FIG. 3)
# Procedure: as §1, §2, §3
# [4] = system: Caco-2 cells; experiment: Intracellular NAD^+/NADH quantification in Caco-2 cells; format: cell-based, human; settings: 10 μM, 24 hours after addition, vs DMSO control (FIG. 4)
# Procedure: (§4) Caco-2 cells were passaged in the same manner as in Example 1 and used for testing. Caco-2 cells were seeded in a 5-mL dish at a cell concentration of 3×10^5 cells/dish, and equol was added in the same manner as in Example 1. In addition, a control and a positive control were prepared in the same manner as well.
# The medium was removed 24 hours after the addition of equol, the cells were washed with PBS, then intracellular NAD^+ and NADH were measured using an NAD^+/NADH quantification kit (BioVision, San Francisco, USA), and the NAD^+/NADH ratio was determined.
# [5] = system: PGC-1α; experiment: PGC-1α expression level and acetyl PGC-1α level in Caco-2 cells (Western blotting, immunoprecipitation); format: cell-based, human; settings: 10 μM, 24 hours after addition, vs DMSO control (FIGS. 5-1, 5-2)
# Procedure: as §4
# The medium was removed 24 hours after the addition of equol, the cells were washed with PBS, and then cellular proteins were extracted. The extracted proteins were subjected to Western blotting using an anti-PGC-1α antibody (ab77210, abcam, Cambridge, UK) to measure the expression level of PGC-1α. Furthermore, after immunoprecipitation using an anti-acetylated-lysine antibody (#9441S, Cell Signaling Technology, Danvers, MA, USA), the acetyl PGC-1α level was measured by Western blotting.
# [6] = system: Caco-2 cells; experiment: Intracellular mitochondria in Caco-2 cells (MitoTracker staining, imaging cytometer); format: cell-based, human; settings: 10 μM, 24 hours after addition, vs DMSO control (FIG. 6)
# Procedure: as §4, with “μClear Fluorescence Black Plate (Greiner Bio-one)” for “5-mL dish”, “5×10^3” for “3×10^5”
# (§5) Mitochondria were stained using MotoTracker Red CMXRos (Invitrogen Corporation) 24 hours after the addition of equol. The cells were subjected to NI Cell Analyzer 1000 Imaging Cytometer (GE Healthcare Bio-Sciences Corp, Piscataway, NJ, USA) to detect intracellular mitochondria, and the image data were digitized using “mito Tracker” of NI Cell Analyzer 1000 Workstation (GE Healthcare Bio-Sciences Corp, Piscataway, NJ, USA).
# [7] = system: NAMPT gene; experiment: NAMPT gene expression in C2C12 cells (real-time PCR); format: cell-based, mouse; settings: C2C12 cells (myotubes), 10 μM, 24 hours after addition, relative to β-actin, vs DMSO control (FIG. 7)
# Procedure: (§6) Mouse skeletal muscle-derived myoblast cell line C2C12 cells (Muscle, Myoblast, Mus musculus, mouse, ATCC CRL-1772 (strain C3H)) were passaged using DMEM (containing 10% FBS, antibiotics (penicillin and streptomycin), and NaHCO3) medium in a CO2 incubator under conditions of 37° C., 5% CO2, and 95% air.
# (§7) After the C2C12 cells reached about 90% confluence, the serum in the medium was replaced with inactivated horse serum, and the serum concentration was lowered to 2% to induce differentiation. Cells on day 5 after differentiation induction were used as C2C12 myotubes for testing.
# as §2, with “C2C12” for “Caco-2”, “resveratrol” for “resveratrol (Wako Pure Chemical Industries, Ltd.)”
# (§8) Cells were harvested 24 hours after the addition of equol, and total RNA was extracted. cDNA was synthesized using the total RNA and was used as a template for real-time PCR. […] In addition, the relative gene expression level was calculated using β-actin, which is a housekeeping gene, by dividing the measured value by the expression level of β-actin.
# [8] = system: SIRT1 gene; experiment: SIRT1 gene expression in C2C12 cells (real-time PCR); format: cell-based, mouse; settings: C2C12 cells (myotubes), 10 μM, 24 hours after addition, relative to β-actin, vs DMSO control (FIG. 8)
# Procedure: as §6, §7
# as §2, with “C2C12” for “Caco-2”, “resveratrol” for “resveratrol (Wako Pure Chemical Industries, Ltd.)”
# as §8
# [9] = system: PGC-1α gene; experiment: PGC-1α gene expression in C2C12 cells (real-time PCR); format: cell-based, mouse; settings: C2C12 cells (myotubes), 10 μM, 24 hours after addition, relative to β-actin, vs DMSO control (FIG. 9)
# Procedure: as §6, §7
# as §2, with “C2C12” for “Caco-2”, “resveratrol” for “resveratrol (Wako Pure Chemical Industries, Ltd.)”
# as §8
# [10] = system: C2C12 cells; experiment: Intracellular mitochondria in C2C12 myotubes (MitoTracker staining, imaging cytometer); format: cell-based, mouse; settings: 10 μM, 72 hours after addition, vs DMSO control (FIG. 10)
# Procedure: as §5
# as §7, with “C2C12 cells were passaged in the same manner as in Example 7 and used for testing. C2C12 cells were seeded in a μClear Fluorescence Black Plate (Greiner Bio-one) at a cell concentration of 1×10^4 cells/well. After” for “After”, “the” for “the C2C12”
# Equol was added in the same manner as in Example 1. In addition, the same amount of DMSO was also used for a control.
# The number of mitochondria was measured 72 hours after the addition of equol in the same manner as in Example 4.
compound,measurement,setting,value
"Oc1ccc([C@H]2COc3cc(O)ccc3C2)cc1 [equol, 4′,7-isoflavandiol]",expression level of NAMPT gene,[1],increased the expression levels
same,expression level of SIRT1 gene,[2],increased the expression levels
same,expression level of PGC-1α gene,[3],increased the expression levels
same,NAD^+ (NAD^+/NADH ratio),[4],increased NAD^+
same,deacetylation of PGC-1α (acetyl PGC-1α level),[5],promote deacetylation of PGC-1α
same,"expression level of PGC-1α (protein, Western blotting)",[5],increased the expression level of PGC-1α
same,number of intracellular mitochondria,[6],increased the number of intracellular mitochondria
same,expression level of NAMPT gene,[7],increased the expression levels
same,expression level of SIRT1 gene,[8],increased the expression levels
same,expression level of PGC-1α gene,[9],increased the expression levels
same,number of intracellular mitochondria,[10],increased the number of intracellular mitochondria
